In this assay the test system is A/NJ/15/2007 (H1N1-H274Y). The format is cell-based, Influenza A.

Values after ≈ are worked out from the molar mass of the structure shown.

Take `Nc1ncnc2c([C@@H]3N[C@H](CO)[C@@H](O)[C@H]3O)c[nH]c12` [compound 1, (2S,3S,4R,5R)-2-(4-Amino-5H-pyrrolo[3,2-d]pyrimidin-7-yl)-5-(hydroxymethyl)pyrrolidine-3,4-diol]: the “EC50, antiviral activity in MDCK cells” value worked out at 1.39 µg/mL (≈ 5.24 µM).
